In PMC7692329, “Inhibitory Effect of AB-PINACA, Indazole Carboxamide Synthetic Cannabinoid, on Human Major Drug-Metabolizing Enzymes and Transporters” (Pharmaceutics, 2020):
Read-outs that look alike come from different tables or passages of the source.

Legend:
[1] = target: T1, P-gp (Homo sapiens, UniProt P08183); assay: P-gp-mediated B to A transport of digoxin in LLC-PK1-MDR1 cells; type: in vitro ADME
T1 construct: host or cells: LLC-PK1

[2] = target: T2, BCRP (Homo sapiens, UniProt Q9UNQ0); assay: BCRP-mediated B to A transport of estrone-3-sulfate in LLC-PK1-BCRP cells; type: in vitro ADME
T2 construct: host or cells: LLC-PK1

[3] = target: CYP2A6 (Homo sapiens, UniProt P11509); assay: CYP2A6 coumarin 7-hydroxylase inhibition in ultrapooled human liver microsomes
[4] = target: UGT2B7 (Homo sapiens, UniProt P16662); assay: UGT2B7 naloxone 3-β-D-glucuronidation inhibition in ultrapooled human liver microsomes
[5] = child, chewing an AB-PINACA contaminated cigarette; cited from earlier work
[6] = target: UGT1A4 (Homo sapiens, UniProt P22310); assay: UGT1A4 trifluoperazine N-glucuronidation inhibition in ultrapooled human liver microsomes
[7] = target: T3, OAT1 (Homo sapiens, UniProt Q4U2R8); assay: OAT1-mediated para-aminohippuric acid uptake in HEK293-OAT1 cells; type: in vitro ADME
T3 construct: host or cells: HEK293

[8] = target: T4, OCT1 (Homo sapiens, UniProt O15245); assay: OCT1-mediated methyl-4-phenylpyridinium uptake in HEK293-OCT1 cells; type: in vitro ADME
T4 construct: host or cells: HEK293
T4 sequence (O15245 1-554): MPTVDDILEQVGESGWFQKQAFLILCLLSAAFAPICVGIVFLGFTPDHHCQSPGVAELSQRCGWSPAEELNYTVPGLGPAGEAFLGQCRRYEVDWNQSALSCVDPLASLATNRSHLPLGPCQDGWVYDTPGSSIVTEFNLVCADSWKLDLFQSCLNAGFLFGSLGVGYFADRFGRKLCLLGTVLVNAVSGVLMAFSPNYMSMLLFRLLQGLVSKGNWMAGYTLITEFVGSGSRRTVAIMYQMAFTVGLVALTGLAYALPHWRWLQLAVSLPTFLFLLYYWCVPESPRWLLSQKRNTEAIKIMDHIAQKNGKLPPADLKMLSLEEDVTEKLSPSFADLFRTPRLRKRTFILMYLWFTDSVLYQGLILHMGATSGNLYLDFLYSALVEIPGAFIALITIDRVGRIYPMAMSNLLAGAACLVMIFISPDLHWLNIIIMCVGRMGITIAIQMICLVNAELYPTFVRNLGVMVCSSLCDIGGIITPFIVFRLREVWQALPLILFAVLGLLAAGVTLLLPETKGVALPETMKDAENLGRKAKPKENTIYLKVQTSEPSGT

Sequence of CYP2A6 (P11509 whole entry): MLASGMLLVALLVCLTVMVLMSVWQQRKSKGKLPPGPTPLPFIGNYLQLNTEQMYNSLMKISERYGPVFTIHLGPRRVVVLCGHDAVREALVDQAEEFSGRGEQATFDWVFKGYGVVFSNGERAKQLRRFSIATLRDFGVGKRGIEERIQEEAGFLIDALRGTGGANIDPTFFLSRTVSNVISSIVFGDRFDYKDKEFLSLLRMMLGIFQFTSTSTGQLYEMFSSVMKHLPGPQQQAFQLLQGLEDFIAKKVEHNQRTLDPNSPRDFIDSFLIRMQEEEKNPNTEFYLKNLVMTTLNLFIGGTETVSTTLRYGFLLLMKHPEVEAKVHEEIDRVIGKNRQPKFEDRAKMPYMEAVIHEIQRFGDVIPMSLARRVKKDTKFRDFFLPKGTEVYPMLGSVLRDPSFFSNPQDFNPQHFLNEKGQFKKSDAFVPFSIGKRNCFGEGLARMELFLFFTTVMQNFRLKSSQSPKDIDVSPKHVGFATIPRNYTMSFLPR
T3 sequence (Q4U2R8 whole entry): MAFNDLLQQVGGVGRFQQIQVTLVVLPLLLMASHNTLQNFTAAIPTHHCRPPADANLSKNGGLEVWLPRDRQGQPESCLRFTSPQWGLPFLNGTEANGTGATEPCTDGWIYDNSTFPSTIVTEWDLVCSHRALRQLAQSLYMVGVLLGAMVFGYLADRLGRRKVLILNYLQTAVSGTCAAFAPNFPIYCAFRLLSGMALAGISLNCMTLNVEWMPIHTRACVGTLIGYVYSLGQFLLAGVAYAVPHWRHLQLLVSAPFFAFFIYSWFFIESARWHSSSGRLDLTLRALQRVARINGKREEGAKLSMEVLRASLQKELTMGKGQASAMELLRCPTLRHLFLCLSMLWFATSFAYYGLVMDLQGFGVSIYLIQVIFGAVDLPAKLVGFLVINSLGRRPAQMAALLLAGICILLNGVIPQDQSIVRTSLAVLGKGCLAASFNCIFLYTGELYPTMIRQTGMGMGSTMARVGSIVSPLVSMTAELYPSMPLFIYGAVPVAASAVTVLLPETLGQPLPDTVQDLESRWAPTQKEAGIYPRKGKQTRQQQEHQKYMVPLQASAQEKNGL
T1 sequence (P08183 whole entry): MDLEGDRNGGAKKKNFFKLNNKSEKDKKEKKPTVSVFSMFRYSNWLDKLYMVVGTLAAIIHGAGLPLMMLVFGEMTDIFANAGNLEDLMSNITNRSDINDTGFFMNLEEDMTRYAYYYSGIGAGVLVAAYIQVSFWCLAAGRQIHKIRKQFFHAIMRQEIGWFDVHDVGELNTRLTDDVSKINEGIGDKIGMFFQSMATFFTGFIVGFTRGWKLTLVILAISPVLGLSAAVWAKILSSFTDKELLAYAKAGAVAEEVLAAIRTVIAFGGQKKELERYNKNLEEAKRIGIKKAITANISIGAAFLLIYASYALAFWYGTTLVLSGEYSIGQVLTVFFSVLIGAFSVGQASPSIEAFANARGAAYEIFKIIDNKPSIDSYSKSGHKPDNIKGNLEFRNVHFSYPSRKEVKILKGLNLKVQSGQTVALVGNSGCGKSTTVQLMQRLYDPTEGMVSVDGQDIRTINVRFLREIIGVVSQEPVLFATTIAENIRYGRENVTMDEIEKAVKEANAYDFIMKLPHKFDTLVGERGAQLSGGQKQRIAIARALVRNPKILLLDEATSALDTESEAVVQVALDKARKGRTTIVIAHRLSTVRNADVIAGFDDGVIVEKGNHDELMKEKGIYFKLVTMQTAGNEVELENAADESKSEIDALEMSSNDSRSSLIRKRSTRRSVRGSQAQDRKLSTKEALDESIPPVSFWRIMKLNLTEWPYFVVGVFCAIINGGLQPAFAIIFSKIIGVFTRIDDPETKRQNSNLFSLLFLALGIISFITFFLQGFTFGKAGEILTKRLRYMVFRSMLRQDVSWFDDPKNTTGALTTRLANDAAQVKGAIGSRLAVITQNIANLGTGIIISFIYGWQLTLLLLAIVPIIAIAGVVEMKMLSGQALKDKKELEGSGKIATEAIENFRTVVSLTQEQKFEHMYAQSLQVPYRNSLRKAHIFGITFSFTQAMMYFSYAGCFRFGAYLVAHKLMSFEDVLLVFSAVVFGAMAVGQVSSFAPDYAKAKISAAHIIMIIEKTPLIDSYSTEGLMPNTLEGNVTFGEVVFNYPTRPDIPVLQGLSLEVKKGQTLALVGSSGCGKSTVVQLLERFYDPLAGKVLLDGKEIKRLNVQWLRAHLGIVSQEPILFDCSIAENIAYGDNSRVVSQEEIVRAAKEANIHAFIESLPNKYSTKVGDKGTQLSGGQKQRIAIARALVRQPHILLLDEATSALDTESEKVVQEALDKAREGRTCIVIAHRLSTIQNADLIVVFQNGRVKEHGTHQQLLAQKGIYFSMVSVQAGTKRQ
Sequence of UGT1A4 (P22310 29-534): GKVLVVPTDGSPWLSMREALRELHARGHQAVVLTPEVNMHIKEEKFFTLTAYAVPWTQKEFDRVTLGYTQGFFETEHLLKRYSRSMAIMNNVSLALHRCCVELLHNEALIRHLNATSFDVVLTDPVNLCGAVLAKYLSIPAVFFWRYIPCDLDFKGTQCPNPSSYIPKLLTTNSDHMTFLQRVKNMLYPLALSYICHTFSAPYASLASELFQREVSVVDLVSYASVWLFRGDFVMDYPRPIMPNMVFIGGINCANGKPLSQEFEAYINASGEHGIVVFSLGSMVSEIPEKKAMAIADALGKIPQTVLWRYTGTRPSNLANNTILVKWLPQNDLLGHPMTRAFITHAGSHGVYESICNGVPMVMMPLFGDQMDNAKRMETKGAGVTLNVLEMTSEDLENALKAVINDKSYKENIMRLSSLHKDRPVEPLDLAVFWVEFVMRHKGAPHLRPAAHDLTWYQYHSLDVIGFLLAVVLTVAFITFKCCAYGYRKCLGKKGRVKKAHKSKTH
Sequence of UGT2B7 (P16662 24-529): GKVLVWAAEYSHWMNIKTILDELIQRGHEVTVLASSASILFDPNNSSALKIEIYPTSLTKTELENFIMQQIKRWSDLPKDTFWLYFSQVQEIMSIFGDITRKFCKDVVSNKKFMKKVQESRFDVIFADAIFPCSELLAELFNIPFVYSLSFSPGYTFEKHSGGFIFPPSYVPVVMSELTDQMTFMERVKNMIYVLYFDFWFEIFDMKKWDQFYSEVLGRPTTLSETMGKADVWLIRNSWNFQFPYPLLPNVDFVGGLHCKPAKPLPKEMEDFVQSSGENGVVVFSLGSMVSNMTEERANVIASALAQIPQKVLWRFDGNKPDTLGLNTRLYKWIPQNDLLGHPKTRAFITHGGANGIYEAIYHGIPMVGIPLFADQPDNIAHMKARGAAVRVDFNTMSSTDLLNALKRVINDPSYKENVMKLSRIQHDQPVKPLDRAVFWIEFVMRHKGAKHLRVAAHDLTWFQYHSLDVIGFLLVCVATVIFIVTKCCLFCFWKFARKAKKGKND
T2 sequence (Q9UNQ0 whole entry): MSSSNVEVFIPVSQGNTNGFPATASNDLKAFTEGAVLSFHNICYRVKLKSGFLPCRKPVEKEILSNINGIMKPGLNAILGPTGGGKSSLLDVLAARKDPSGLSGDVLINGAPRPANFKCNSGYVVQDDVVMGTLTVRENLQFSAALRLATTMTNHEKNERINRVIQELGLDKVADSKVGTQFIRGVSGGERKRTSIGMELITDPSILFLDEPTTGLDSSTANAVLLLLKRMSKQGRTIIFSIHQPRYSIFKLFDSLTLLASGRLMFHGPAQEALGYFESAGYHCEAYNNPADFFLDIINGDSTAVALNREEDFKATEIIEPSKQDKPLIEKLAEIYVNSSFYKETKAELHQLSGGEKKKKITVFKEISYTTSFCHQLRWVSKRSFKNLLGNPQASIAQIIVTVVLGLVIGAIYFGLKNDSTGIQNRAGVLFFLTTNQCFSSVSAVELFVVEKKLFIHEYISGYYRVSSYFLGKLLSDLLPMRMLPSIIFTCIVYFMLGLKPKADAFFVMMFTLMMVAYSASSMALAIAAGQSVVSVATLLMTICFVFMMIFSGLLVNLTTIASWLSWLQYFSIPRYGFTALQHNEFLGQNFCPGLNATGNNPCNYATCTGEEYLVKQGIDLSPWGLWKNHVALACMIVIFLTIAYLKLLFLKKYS

SMILES: CCCCCn1nc(C(=O)N[C@H](C(N)=O)C(C)C)c2ccccc21 [AB-PINACA, N-[(2S)-1-amino-3-methyl-1-oxobutan-2-yl]-1-pentyl-1H-indazole-3-carboxamide]
- IC50 [1]: > 100 µM
- IC50 [2]: > 100 µM
- IC50 [3]: > 100 µM
- IC50 ([3]; read-out: IC50 Without NADPH Preincubation, CYP2A6 coumarin 7-hydroxylase, ultrapooled human liver microsomes, without NADPH preincubation): > 100 µM
- IC50 [4]: > 100 µM
- serum level [5]: 0.042 µg/mL
- IC50 [6]: > 100 µM
- IC50 [7]: > 250 µM
- IC50 [8]: 136 µM
- Ki [8]: 146 µM
- Mode of Inhibition, OCT1 ([8]; methyl-4-phenylpyridinium uptake, HEK293-OCT1 cells): mixed mode of inhibition
